Measured values published in patent US9226923B2, “Spirocyclic molecules as protein kinase inhibitors” (Nanjing Allgen Pharma Co. Ltd., priority 2011, dated 2016).

Tests used:
Human ALK = Human ALK (Homo sapiens (Human), UniProt Q9UM73); assay: ALK enzyme inhibition assay (Reaction Biology Corporation); format: biochemical; details: poly[Glu:Tyr] (4:1) 0.2 mg/ml, ATP 10 μM; read-out: Inhibitory Activities IC50, ALK
Protocol: (§1) The inhibitory activities of compounds of Formula I were assay at Reaction Biology Corporation, One Great Valley Parkway, Malvern, Pa., USA. Human ALK and cMet enzymes were used and the substrate was a peptide substrate, poly[Glu:Tyr] (4:1) at a concentration of 0.2 mg/ml.

Human cMet = Human cMet (Homo sapiens (Human), UniProt P08581); assay: cMet enzyme inhibition assay (Reaction Biology Corporation); format: biochemical; details: poly[Glu:Tyr] (4:1) 0.2 mg/ml, ATP 10 μM; read-out: Inhibitory Activities IC50, cMet
Protocol: as §1

Human ALK, sequence (Q9UM73 19-1620): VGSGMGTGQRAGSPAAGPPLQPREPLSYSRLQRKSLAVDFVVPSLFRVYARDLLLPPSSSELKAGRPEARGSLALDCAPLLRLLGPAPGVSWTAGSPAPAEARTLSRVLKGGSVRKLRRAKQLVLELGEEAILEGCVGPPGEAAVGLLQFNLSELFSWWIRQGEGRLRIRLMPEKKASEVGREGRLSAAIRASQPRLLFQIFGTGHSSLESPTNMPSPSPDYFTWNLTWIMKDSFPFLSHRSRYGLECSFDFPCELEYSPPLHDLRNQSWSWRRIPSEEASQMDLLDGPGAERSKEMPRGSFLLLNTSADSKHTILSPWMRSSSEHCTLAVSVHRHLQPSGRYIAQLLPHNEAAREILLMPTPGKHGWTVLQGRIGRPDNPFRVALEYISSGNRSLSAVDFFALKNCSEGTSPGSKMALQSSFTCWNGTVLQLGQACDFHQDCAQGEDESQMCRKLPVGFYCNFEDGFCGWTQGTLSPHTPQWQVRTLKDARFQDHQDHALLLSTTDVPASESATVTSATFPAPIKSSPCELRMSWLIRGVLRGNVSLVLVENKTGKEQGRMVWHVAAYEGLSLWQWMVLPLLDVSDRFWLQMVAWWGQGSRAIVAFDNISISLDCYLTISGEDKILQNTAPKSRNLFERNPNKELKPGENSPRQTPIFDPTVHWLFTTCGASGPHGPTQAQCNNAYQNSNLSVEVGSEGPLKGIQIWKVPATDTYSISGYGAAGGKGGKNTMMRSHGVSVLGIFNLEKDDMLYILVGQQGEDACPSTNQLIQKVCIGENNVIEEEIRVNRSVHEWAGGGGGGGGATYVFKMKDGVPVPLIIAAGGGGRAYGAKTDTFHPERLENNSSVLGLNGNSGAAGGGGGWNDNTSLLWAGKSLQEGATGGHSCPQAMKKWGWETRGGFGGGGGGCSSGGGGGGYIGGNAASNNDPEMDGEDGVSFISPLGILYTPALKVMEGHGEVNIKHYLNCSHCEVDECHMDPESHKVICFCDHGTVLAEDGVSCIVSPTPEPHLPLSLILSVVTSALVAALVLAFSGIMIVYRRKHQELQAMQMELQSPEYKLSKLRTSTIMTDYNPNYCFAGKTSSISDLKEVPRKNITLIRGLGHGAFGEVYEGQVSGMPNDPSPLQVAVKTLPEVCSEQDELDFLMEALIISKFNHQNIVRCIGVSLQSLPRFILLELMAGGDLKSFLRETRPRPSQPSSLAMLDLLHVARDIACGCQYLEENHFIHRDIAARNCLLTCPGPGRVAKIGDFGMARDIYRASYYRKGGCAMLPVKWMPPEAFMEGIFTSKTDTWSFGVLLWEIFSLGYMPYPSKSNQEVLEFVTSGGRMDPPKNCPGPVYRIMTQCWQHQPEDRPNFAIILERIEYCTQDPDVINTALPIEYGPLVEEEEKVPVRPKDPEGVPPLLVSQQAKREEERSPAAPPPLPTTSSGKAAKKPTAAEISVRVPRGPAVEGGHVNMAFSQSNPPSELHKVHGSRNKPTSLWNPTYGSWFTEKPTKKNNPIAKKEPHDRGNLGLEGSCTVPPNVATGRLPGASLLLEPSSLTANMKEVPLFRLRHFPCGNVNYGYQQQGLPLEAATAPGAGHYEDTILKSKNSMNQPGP
Human cMet, sequence (P08581 25-1390): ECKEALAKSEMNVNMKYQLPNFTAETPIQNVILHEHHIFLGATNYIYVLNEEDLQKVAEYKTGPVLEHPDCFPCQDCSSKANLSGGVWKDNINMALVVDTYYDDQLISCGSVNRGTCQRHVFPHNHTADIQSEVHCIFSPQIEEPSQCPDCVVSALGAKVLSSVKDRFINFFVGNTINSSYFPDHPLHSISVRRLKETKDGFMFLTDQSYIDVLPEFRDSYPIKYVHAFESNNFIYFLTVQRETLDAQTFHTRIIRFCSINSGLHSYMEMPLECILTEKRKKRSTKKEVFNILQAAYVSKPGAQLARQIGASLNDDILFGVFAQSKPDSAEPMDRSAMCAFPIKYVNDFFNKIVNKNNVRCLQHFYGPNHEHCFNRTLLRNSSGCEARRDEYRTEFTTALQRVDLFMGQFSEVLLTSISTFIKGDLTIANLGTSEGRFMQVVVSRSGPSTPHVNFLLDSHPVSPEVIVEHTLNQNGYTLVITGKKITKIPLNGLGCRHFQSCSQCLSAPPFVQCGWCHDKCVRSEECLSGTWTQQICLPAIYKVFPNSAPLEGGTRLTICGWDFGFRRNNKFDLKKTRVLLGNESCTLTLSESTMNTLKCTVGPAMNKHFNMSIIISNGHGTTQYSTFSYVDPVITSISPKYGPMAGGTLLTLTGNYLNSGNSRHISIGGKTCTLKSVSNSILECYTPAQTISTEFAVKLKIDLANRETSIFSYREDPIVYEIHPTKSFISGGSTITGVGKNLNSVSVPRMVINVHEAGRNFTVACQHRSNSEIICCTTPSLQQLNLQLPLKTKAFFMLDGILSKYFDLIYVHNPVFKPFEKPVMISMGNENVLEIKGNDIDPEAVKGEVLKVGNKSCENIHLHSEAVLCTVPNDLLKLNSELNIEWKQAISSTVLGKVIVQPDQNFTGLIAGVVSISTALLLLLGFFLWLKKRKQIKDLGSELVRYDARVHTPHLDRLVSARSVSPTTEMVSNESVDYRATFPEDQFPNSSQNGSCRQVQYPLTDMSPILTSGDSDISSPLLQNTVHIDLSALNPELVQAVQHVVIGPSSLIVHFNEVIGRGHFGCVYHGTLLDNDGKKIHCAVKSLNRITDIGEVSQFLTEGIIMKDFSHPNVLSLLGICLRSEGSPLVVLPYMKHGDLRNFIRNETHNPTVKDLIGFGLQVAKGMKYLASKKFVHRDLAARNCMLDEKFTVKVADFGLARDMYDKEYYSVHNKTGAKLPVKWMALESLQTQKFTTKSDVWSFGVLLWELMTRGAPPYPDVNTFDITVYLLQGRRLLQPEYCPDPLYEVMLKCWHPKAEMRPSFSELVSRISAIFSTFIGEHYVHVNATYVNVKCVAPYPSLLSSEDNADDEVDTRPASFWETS

IC50 (Human ALK)	IC50 (Human cMet)	SMILES
2.21 nM		C[C@@H](Oc1cc(-c2cnn(C3CC4(CNC4)C3)c2)cnc1N)c1c(Cl)ccc(F)c1Cl [Example 2, (R)-5-(1-(2-azaspiro[3.3]heptan-6-yl)-1H-pyrazol-4-yl)-3-(1-(2,6-dichloro-3-fluorophenyl)ethoxy)pyridin-2-amine]
	8.9 nM	C[C@@H](Oc1cc(-c2cnn(C3CC4(CCNCC4)C3)c2)cnc1N)c1c(Cl)ccc(F)c1Cl [Example 3, (R)-5-(1-(7-azaspiro[3.5]nonan-2-yl)-1H-pyrazol-4-yl)-3-((R)-1-(2,6-dichloro-3-fluorophenyl)ethoxy)pyridin-2-amine]
4.31 nM	4.8 nM	C[C@@H](Oc1cc(-c2cnn(C3CCC4(CC3)CNC4)c2)cnc1N)c1c(Cl)ccc(F)c1Cl [Example 4, (R)-5-(1-(2-azaspiro[3.5]nonan-7-yl)-1H-pyrazol-4-yl)-3-((R)-1-(2,6-dichloro-3-fluorophenyl)ethoxy)pyridin-2-amine]
1.92 nM	2.09 nM	C[C@@H](Oc1cc(-c2cnn(C3CC4(CCCNC4)C3)c2)cnc1N)c1c(Cl)ccc(F)c1Cl (stereo partly drawn) [Example 5]
